Measured values taken from patent publication US7196190B2, “Methods and compositions for screening for angiogenesis modulating compounds” (Xenogen Corporation, priority 1999, dated 2007).

Tested on: VEGFR-2 promoter
Experiment: In vivo bioluminescence imaging of female VEGFR2 transgenic mouse during estrus
Details: subcutaneous 30mg/kg/day for 16 days, female VEGFR2 transgenic F1 mouse (founder KA); before treatment signal high for a maximum of 3–5 days
Description: Two female VEGFR2 transgenic F1 mice from founder KA (See Example 7 above) were subjected to in vivo imaging of bioluminescence both dorsally and ventrally over a 16 day period according to the methods described in U.S. Pat. No. 5,650,135 to Contag et al. The results are presented graphically in FIGS. 18A–18D (FIGS. 18A and 18B, mouse 1 and 2 dorsal views, respectively, and FIGS. 18C and 18D, mouse 1 and 2 ventral views, respectively). […] In general, higher levels of luminescence were detectable ventrally as compared to dorsally. The signals appeared to be localized in the ovary (dorsal view) and uterus (ventral view). Both ovaries were clearly visible in most of the dorsal views. The uterus, connecting tubes and ovaries were visible in some of the ventral views.
The effect of the known estrogen antagonist ICI 182 780 (Tocris Cookson Ltd. Bristol, UK) on gene expression mediated by the VEGFR-2 promoter was investigated using the methods described in the preceding example.
A mature female VEGFR2 transgenic F1 mouse from founder KA (See Example 7 above) was imaged daily for 16 days according to the methods described in U.S. Pat. No. 5,650,135 to Contag et al. The bioluminescence signal remained high for a maximum of from 3–5 days, dropping back to a basal level for the interim periods. […]

C[C@]12CC[C@@H]3c4ccc(O)cc4C[C@@H](CCCCCCCCC[S+]([O-])CCCC(F)(F)C(F)(F)F)[C@H]3[C@@H]1CC[C@@H]2O (stereo partly shown) [ICI 182 780]
time the uterine bioluminescence signal remained high before dropping back to basal level: 9 days
